From patent US8192962B2, “Processes for detecting toxic substances” (Daikin Industries, Ltd., priority 2001, dated 2012)

System: Transport facilitation protein genes
Test: DNA chip mRNA expression in yeast, transport facilitation protein genes (Table 5)
Type: cell-based, Saccharomyces cerevisiae S288C
Description: Yeast (Saccharomyces cerevisiae S288C (α SUC2mal mel gap2 CUP1)) were incubated at 25° C. on YPD medium (yeast extract 1%, polypepton 2%, glucose 2%). One of toxic chemical substances was added to the cells at logarithmic growth phase, and the cells were further incubated for two hours. Cells were cultured without any chemical substance in the same condition, and were used as control. Concentrations of the chemical substances were defined to inhibit the growth of the yeast but not lead to death.
After completion of the incubation, the culture was centrifuged to collect the cells. To the cells, sodium acetate buffer (50 mM sodium acetate, 10 mM EDTA, 1% SDS) was added, and the mixture was shaken at 65° C. for five minutes, followed by returning to room temperature, and obtaining the supernatant, of which the procedures were repeated two times. To the supernatant, ½ amount of a solution of phenol/chloroform was added, and the mixture was centrifuged to give a supernatant, which was added with an equal amount of chloroform, and the mixture was centrifuged to give a supernatant. To the supernatant, an equal amount of isopropanol containing 0.3 M sodium acetate was added, and the mixture was allowed to stand at room temperature for 30 minutes, after which the mixture was centrifuged to give a sediment of the whole RNAs. Seventy % ethanol was added to the sediment, and the mixture was again centrifuged to give a sediment, which was then dried and dissolved in water. mRNA was isolated from the whole RNAs as followings. In view of the fact that a poly A chain is attached to the 3′ terminus of mRNA, a polynucleotide having a poly T structure which was immobilized on the surface of latex beads was used to trap the mRNA, and then the mRNA was washed and eluted with spine column (Oligotex-dT30<Super>mRNA Purification Kit, Takara). Reverse transcription of the mRNA was conducted with a reverse transcriptase (Super Script II Reverse Transcriptase; catalogue No. 18064-014, GibcoBRL) using fluorescence-labeled nucleotides to give cDNAs that were introduced with Cy3-dUTP or Cy5-dUTP during the reverse transcription.
The labeled cDNAs were dissolved in TE buffer (10mM Tris-HCl/1 mM EDTA, pH8.0), and the solution was dropped on the DNA chip containing the whole genes of yeast (DNA Chip Research Inc. Japan) so that the cDNAs were hybridized on the DNA chip at 65° C. for over 12 hours. The fluoresces intensity of the DNA chip was read with a scanner, and the ratio relative to the fluorescence intensity resulting from the absence of chemical substance was estimated as the following, which is shown in Tables 1 to 9: […]

Measured: The level of expressed mRNA in the presence of chemical substance/The level of expressed mRNA in the absence of chemical substance

O=[N+]([O-])c1cc[n+]([O-])c2ccccc12 [(5), 4-nitroquinolin-N-oxide]
1.6: yeast gene YDR342C
1.7: yeast gene YBR207W
0.7: yeast gene YBL030C | yeast gene YDL198C | yeast gene YDR497C | yeast gene YGR197C
0.9: yeast gene YCL025C | yeast gene YCR024C-A | yeast gene YDL210W | yeast gene YDR038C | yeast gene YDR387C | yeast gene YGR082W
1.0: yeast gene YBL099W | yeast gene YDL128W | yeast gene YDR086C | yeast gene YDR270W | yeast gene YEL027W | yeast gene YFL050C | yeast gene YGL006W | yeast gene YGL104C
1.3: yeast gene YCR037C | yeast gene YDL245C | yeast gene YDR039C | yeast gene YDR298C | yeast gene YDR343C | yeast gene YDR345C | yeast gene YFL011W | yeast gene YFL054C | yeast gene YGR055W
0.6: yeast gene YER053C
1.2: yeast gene YCL038C | yeast gene YEL063C | yeast gene YFL041W | yeast gene YGL167C | yeast gene YGR065C | yeast gene YGR096W
1.4: yeast gene YBR052C | yeast gene YBR068C | yeast gene YBR127C | yeast gene YBR294W | yeast gene YBR298C | yeast gene YCR098C | yeast gene YEL065W | yeast gene YGL255W | yeast gene YGR224W
0.8: yeast gene YBR132C | yeast gene YBR293W | yeast gene YBR295W | yeast gene YGL008C | yeast gene YGR138C | yeast gene YGR191W | yeast gene YGR260W
